In article PMC11620517, “Novel hydrazone compounds with broad-spectrum antiplasmodial activity and synergistic interactions with antimalarial drugs” (Antimicrobial Agents and Chemotherapy, 2024):
Read-outs that look alike come from different tables or passages of the source.

Experiments:
[1] = system: P. berghei blood-stage parasites; assay: P. berghei blood-stage isobolograms; assay type: cell-based, Plasmodium berghei
Protocol: Antimalarial activity and IC50 values of CB-61 and five antimalarial drugs were assessed using the previously described in vitro drug luminescence assay ([14], [68]). Blood-stage isobolograms were performed to confirm synergistic combinations between CB-61 and the five drugs, following established protocols ([69]). Thirty-two-fold IC50 concentrations were used to obtain six concentration ranges for each drug combination, and then they were serially diluted five times ([67]). IC50 scores for each drug alone were determined, and FIC50 values (FIC50 = […]) were calculated and plotted ([70], [71]). The Promega Luciferase Assay System Kit was used to measure mature schizonts’ RLUs, and Giemsa blood smears confirmed the presence of schizonts ([14]).

[2] = system: P. cynomolgi hypnozoites and hepatic schizonts; assay: P. cynomolgi liver-stage inhibition assay; assay type: cell-based, Plasmodium cynomolgi; conditions: Plasmodium cynomolgi
How it was run: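 Primary primate hepatocytes were infected with P. cynomolgi B strain sporozoites and treated with 8-point threefold dilutions (100 µM to 5 nM) for 4 days, either prophylactically from sporozoite addition or radical-cure from day 4 post-inoculation. Hypnozoites and schizonts counted by high-content imaging and normalized to DMSO; IC50 from four-parameter logistic fit.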

human GST = biological target: T1, human GST (Homo sapiens, UniProt P08263); assay: GST inhibition assay (CDNB); assay type: biochemical; conditions: 6-point 1–50 µM
T1 construct: The open reading frames encoding PfGST, PbGST, and hGST were gene-synthesized; TEV cleavage site (C); Avitag (C); purchased InterRayBio, LLC; host or cells: E. coli BL21 (DE3)
T1 sequence (P08263 1-222): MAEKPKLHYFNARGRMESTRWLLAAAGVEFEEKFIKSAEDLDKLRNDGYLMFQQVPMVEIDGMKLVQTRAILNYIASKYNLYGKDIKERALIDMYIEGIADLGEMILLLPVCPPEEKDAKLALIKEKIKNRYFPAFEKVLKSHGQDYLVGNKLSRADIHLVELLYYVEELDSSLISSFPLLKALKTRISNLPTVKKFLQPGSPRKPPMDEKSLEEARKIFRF
How it was run: (§1)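 Recombinant GST (0.35 mg/mL) with 1 mM CDNB in 100 mM HEPES was preincubated with inhibitor (six concentrations, 1–50 µM; 0.5% DMSO). After 15 min, 1 mM GSH started the reaction, and A340 was followed for 1 h. Slopes were converted to µmol/min using ε340 = 9.6 mM^–1 cm^–1.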

[3] = biological target: T2, recombinant P. falciparum GST (Plasmodium falciparum, UniProt Q8ILQ7); assay: GST inhibition assay (CDNB); assay type: biochemical; conditions: 6-point 1–50 µM
T2 construct: The open reading frames encoding PfGST, PbGST, and hGST were gene-synthesized; TEV cleavage site (C); Avitag (C); purchased InterRayBio, LLC; host or cells: E. coli BL21 (DE3)
T2 sequence (Q8ILQ7 1-211): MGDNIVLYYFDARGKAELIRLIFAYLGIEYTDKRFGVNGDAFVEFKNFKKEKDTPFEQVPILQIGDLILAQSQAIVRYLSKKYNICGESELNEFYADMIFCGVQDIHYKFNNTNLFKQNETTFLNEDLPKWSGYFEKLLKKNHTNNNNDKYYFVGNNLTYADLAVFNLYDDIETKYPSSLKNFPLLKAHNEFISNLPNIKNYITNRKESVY
How it was run: as §1

in vitro = conditions: human
[4] = system: P. falciparum oocyst formation in Anopheles stephensi mosquitoes; assay: P. falciparum oocyst inhibition assay (SMFA); assay type: in vivo, Plasmodium falciparum; conditions: for Median (oocysts) / Median I % / Prevalence % / Prevalence I %: pooled from two representative experiments
Protocol: As previously described, P. falciparum infections were performed using SMFA with NF54 gametocyte cultures diluted to 0.3% stage V gametocytemia ([62]). Infected blood (O+ human 45% hematocrit in serum) was offered to mosquitoes for 30 minutes, and engorged mosquitoes were maintained on a 10% corn syrup solution supplemented by four concentrations of CB compounds (1, 2.5, 5, and 10 µM) at […] ([63]), with DMSO serving as a control. Eight days post-infection, mosquito midguts were dissected and stained with 0.2% mercurochrome for 30 minutes, and oocysts were quantified under a light microscope ([63]).

O=C(N/N=C/c1c(O)ccc2ccccc12)c1cc([N+](=O)[O-])cc([N+](=O)[O-])c1 [CB-61]
Mean ΣFIC50 ([1]; combination with ATQ): 1.13
Mean ΣFIC50 ([1]; combination with CLIND): 0.82
Mean ΣFIC50 ([1]; combination with CQ (negative control)): 1.15
Mean ΣFIC50 ([1]; combination with DHA): 1.44
Mean ΣFIC50 ([1]; combination with HALO): 0.78
Mean ΣFIC50 ([1]; combination with LUM): 1.20
IC50 ([2]; read-out: Hypnozoite IC50): > 10 µM
IC50 ([2]; read-out: Schizont IC50): > 10 µM
IC50 ([2]; read-out: Total parasite IC50): > 10 µM
GST inhibition (human GST): did not inhibit
GST inhibition [3]: did not inhibit
IC50 at 48 h (in vitro): > 20 µM
Median oocyst # ([4]; 1 μM compound): 1
Mean oocyst # excluding zeros (Range) ([4]; 1 μM compound, P. falciparum midgut infection in An. stephensi mosquitoes): 30 (0-109)
Prevalence ([4]; 1 μM compound, infection prevalence in mosquitoes): 60
Median (oocysts) ([4]; 1 µM): 1
Median I % ([4]; 1 µM): 83%
Prevalence % ([4]; 1 µM): 59%
Prevalence I % ([4]; 1 µM): 31%
Median oocyst # ([4]; 2.5 μM compound): 1
Mean oocyst # excluding zeros (Range) ([4]; 2.5 μM compound, P. falciparum midgut infection in An. stephensi mosquitoes): 20 (0-65)
Prevalence ([4]; 2.5 μM compound, infection prevalence in mosquitoes): 55
Median (oocysts) ([4]; 2.5 µM): 1
Median I % ([4]; 2.5 µM): 83%
Prevalence % ([4]; 2.5 µM): 55%
Prevalence I % ([4]; 2.5 µM): 36%
% inhibition (median) ([4]; 2.5 μM, single experiments): 62%
Median oocyst # ([4]; 5 μM compound): 1
Mean oocyst # excluding zeros (Range) ([4]; 5 μM compound, P. falciparum midgut infection in An. stephensi mosquitoes): 20 (0-68)
Prevalence ([4]; 5 μM compound, infection prevalence in mosquitoes): 55
Median (oocysts) ([4]; 5 µM): 1
Median I % ([4]; 5 µM): 83%
Prevalence % ([4]; 5 µM): 55%
Prevalence I % ([4]; 5 µM): 36%
% inhibition (median) ([4]; 5 μM, single experiments): 58%
Mean oocyst # excluding zeros (Range) ([4]; 7.5 μM, single experiments): 15 (0-53)
Median oocyst # ([4]; 7.5 μM, single experiments): 2.5
Prevalence ([4]; 7.5 μM, single experiments): 75
Median oocyst # ([4]; 10 μM compound): 0
Mean oocyst # excluding zeros (Range) ([4]; 10 μM compound, P. falciparum midgut infection in An. stephensi mosquitoes): 7 (0-30)
Prevalence ([4]; 10 μM compound, infection prevalence in mosquitoes): 46
Median (oocysts) ([4]; 10 µM): 0
Median I % ([4]; 10 µM): 100%
Prevalence % ([4]; 10 µM): 46%
Prevalence I % ([4]; 10 µM): 47%
Mean oocyst # excluding zeros (Range) ([4]; 25 μM, single experiments): 1 (0-2)
Median oocyst # ([4]; 25 μM, single experiments): 0
Prevalence ([4]; 25 μM, single experiments): 18
Mean oocyst # excluding zeros (Range) ([4]; 50 μM, single experiments): 1 (0-2)
Median oocyst # ([4]; 50 μM, single experiments): 0
Prevalence ([4]; 50 μM, single experiments): 15
oocyst formation inhibition ([4]; 1 to 10 µM, midguts dissected 8 days after feeding): inhibited midgut oocyst formation in a dose-dependent manner
inhibition at 2.5 µM ([4]; read-out: % inhibition (mean), 2.5 μM compound, oocyst number vs DMSO control): 23%
inhibition at 5 µM ([4]; read-out: % inhibition (mean), 5 μM compound, oocyst number vs DMSO control): 23%
inhibition at 7.5 µM ([4]; read-out: % inhibition (mean), 7.5 μM, single experiments): 29%
inhibition at 10 µM ([4]; read-out: % inhibition (mean), 10 μM compound, oocyst number vs DMSO control): 72%
inhibition at 25 µM ([4]; read-out: % inhibition (mean), 25 μM, single experiments): 48%
inhibition at 50 µM ([4]; read-out: % inhibition (mean), 50 μM, single experiments): 49%
inhibition at 1 µM ([4]; read-out: % inhibition (median), 1 μM compound, oocyst number vs DMSO control): 83%
inhibition at 2.5 µM ([4]; read-out: % inhibition (median), 2.5 μM compound, oocyst number vs DMSO control): 83%
inhibition at 5 µM ([4]; read-out: % inhibition (median), 5 μM compound, oocyst number vs DMSO control): 83%
inhibition at 7.5 µM ([4]; read-out: % inhibition (median), 7.5 μM, single experiments): 79%
inhibition at 10 µM ([4]; read-out: % inhibition (median), 10 μM compound, oocyst number vs DMSO control): 100%
inhibition at 25 µM ([4]; read-out: % inhibition (median), 25 μM, single experiments): 100%
inhibition at 50 µM ([4]; read-out: % inhibition (median), 50 μM, single experiments): 100%
inhibition at 1 µM ([4]; read-out: % inhibition (prevalence), 1 μM compound, vs DMSO control): 31%
inhibition at 2.5 µM ([4]; read-out: % inhibition (prevalence), 2.5 μM compound, vs DMSO control): 36%
inhibition at 5 µM ([4]; read-out: % inhibition (prevalence), 5 μM compound, vs DMSO control): 36%
inhibition at 7.5 µM ([4]; read-out: % inhibition (prevalence), 7.5 μM, single experiments): 21%
inhibition at 10 µM ([4]; read-out: % inhibition (prevalence), 10 μM compound, vs DMSO control): 47%
inhibition at 25 µM ([4]; read-out: % inhibition (prevalence), 25 μM, single experiments): 74%
inhibition at 50 µM ([4]; read-out: % inhibition (prevalence), 50 μM, single experiments): 78%
